This note sets out measurements from patent US6861416B2, “Oxazinones and methods for their use and synthesis” (Chirologix Pharmaceuticals, Inc., priority 2001, dated 2005).

The test system of one data set is Micrococcus luteus. Nature of the data set: Filter disc bioassay on agar plates seeded with Micrococcus luteus. Format: cell-based. The conditions noted are these: for Zone Size: agar plate. As to the method:
Samples of 2-carboxymethyl-5-hydroxy-1,2-oxazin-3-one and penicillin were applied to a filter disc in the amounts indicated in Table 1, below. The discs were applied to agar plates seeded with Micrococcus luteus, and the plates were incubated over night at 37° C.
Samples of 2-[2-carboxypropyl]-5-hydroxy-1,2-oxazin-3-one and desacetoxycephalosporin G were applied to a filter disc in the amounts indicated in Table 2, below. The discs were applied to agar plates seeded with Micrococcus luteus, and the plates were incubated overnight at 37° C.

With `CC(CN1OC=C(O)CC1=O)C(=O)O` (stereo not drawn) [2-[2-carboxypropyl]-5-hydroxy-1,2-oxazin-3-one], the “Zone Size” value in the data set with Micrococcus luteus (12.0 micrograms on filter disc, incubated overnight at 37° C.) was 2.0 cm. Also, the “antibacterial activity, times the activity of 2-carboxymethyl-5-hydroxy-1,2-oxazin-3-one” value with Micrococcus luteus (relative to 2-carboxymethyl-5-hydroxy-1,2-oxazin-3-one, from Tables 1 and 2) is “approximately 50 times”.

Consider `O=C(O)CN1OC=C(O)CC1=O` [2-carboxymethyl-5-hydroxy-1,2-oxazin-3-one], for which the “Zone Size” value is on record as 1.1 cm with Micrococcus luteus (100 micrograms on filter disc, incubated over night at 37° C.) and 2.0 cm with Micrococcus luteus (1000 micrograms on filter disc, incubated over night at 37° C.). Besides, the “antibacterial activity (in words)” value in the data set on Micrococcus luteus (judged from Tables 1 and 2) is “weak antibacterial activity”. Further, the “antibacterial activity, times less than that of penicillin” value in the data set on Micrococcus luteus (relative to penicillin, from Tables 1 and 2) was “at least 1000 times”.

What is called melting point is the temperature, or range, at which the solid turns liquid. As to `C[C@H](C(=O)OC(C)(C)C)N1OC[C@@H](O)[C@@H](O)C1=O` [8b, (αR,4R,5R)-2-(α-tert-Butoxycarbonylethyl)-4,5-dihydroxy-1,2-oxazinan-3-one], the melting point lay in the range of 93 to 94 °C.

As for `CC1(C)S[C@@H]2[C@H](NC(=O)Cc3ccccc3)C(=O)N2[C@H]1C(=O)O` [Penicillin G, reference compound], the “Zone Size” value in the data set with Micrococcus luteus (0.1 micrograms on filter disc, incubated over night at 37° C.) worked out at 1.6 cm.

For the compound `CC1=C(C(=O)O)N2C(=O)[C@@H](NC(=O)Cc3ccccc3)[C@H]2SC1` [desacetoxycephalosporin G, reference compound], the “Zone Size” value with Micrococcus luteus (2.5 micrograms on filter disc, incubated overnight at 37° C.) is 2.5 cm.
